Measurements: ChEMBL document CHEMBL2046330, “Structure-based design of novel benzoxazinorifamycins with potent binding affinity to wild-type and rifampin-resistant mutant Mycobacterium tuberculosis RNA polymerases” (J Med Chem, 2012)

Tests used:
[1] = Inhibition of Mycobacterium tuberculosis RNA polymerase D435V mutant by rolling circle transcription assay in the absence of sigmaA factor
[2] = Inhibition of Mycobacterium tuberculosis RNA polymerase H445Y mutant by rolling circle transcription assay in the absence of sigmaA factor
[3] = Inhibition of Mycobacterium tuberculosis RNA polymerase S450L mutant by rolling circle transcription assay in the absence of sigmaA factor
[4] = Inhibition of Mycobacterium tuberculosis RNA polymerase H445Y mutant by rolling circle transcription assay in the presence of sigmaA factor
[5] = Inhibition of Mycobacterium tuberculosis RNA polymerase D435V mutant by rolling circle transcription assay in the presence of sigmaA factor
[6] = Inhibition of Mycobacterium tuberculosis RNA polymerase S450L mutant by rolling circle transcription assay in the presence of sigmaA factor
[7] = tested on: Mycobacterium tuberculosis; experiment: Ratio of rifalazil IC50 to compound IC50 for Mycobacterium tuberculosis RNA polymerase D435V mutant in the presence of sigmaA factor
[8] = tested on: Mycobacterium tuberculosis; experiment: Ratio of rifalazil IC50 to compound IC50 for Mycobacterium tuberculosis RNA polymerase S450L mutant in the presence of sigmaA factor

Structure (SMILES): CO[C@H]1/C=C/O[C@@]2(C)Oc3c(C)c(O)c4c(O)c(c(/C=N/N5CCN(C)CC5)c(O)c4c3C2=O)NC(=O)/C(C)=C\C=C\[C@H](C)[C@H](O)[C@@H](C)[C@@H](O)[C@@H](C)[C@H](OC(C)=O)[C@@H]1C [RIFAMPIN]
- IC50 [1]: 313 µM
- IC50 [2]: 830 µM
- IC50 [3]: 126 µM

Structure (SMILES): CO[C@H]1/C=C/O[C@@]2(C)Oc3c(C)c(O)c4c(=O)c(c5oc6cccc(OCCCCN7CCN(C(=O)Cn8ccnc8)CC7)c6nc-5c4c3C2=O)NC(=O)/C(C)=C\C=C\[C@H](C)[C@H](O)[C@@H](C)[C@@H](O)[C@@H](C)[C@H](OC(C)=O)[C@@H]1C
- IC50 [4]: 574 µM
- IC50 [5]: 13 µM
- IC50 [6]: 122 µM
- Ratio IC50 [7]: 26

Structure (SMILES): CO[C@H]1/C=C/O[C@@]2(C)Oc3c(C)c(O)c4c(=O)c(c5oc6cc(N7CCN(CC(C)C)CC7)cc(O)c6nc-5c4c3C2=O)NC(=O)/C(C)=C\C=C\[C@H](C)[C@H](O)[C@@H](C)[C@@H](O)[C@@H](C)[C@H](OC(C)=O)[C@@H]1C [RIFALAZIL]
- IC50 [4]: 172 µM
- IC50 [5]: 541 µM
- IC50 [6]: 117 µM

Structure (SMILES): CO[C@H]1/C=C/O[C@@]2(C)Oc3c(C)c(O)c4c(=O)c(c5oc6cccc(OCCCCN7CCN(CCn8ccnc8)CC7)c6nc-5c4c3C2=O)NC(=O)/C(C)=C\C=C\[C@H](C)[C@H](O)[C@@H](C)[C@@H](O)[C@@H](C)[C@H](OC(C)=O)[C@@H]1C
- IC50 [4]: 437 µM
- IC50 [5]: 9 µM
- IC50 [6]: 18 µM
- Ratio IC50 [8]: 7
- Ratio IC50 [7]: 26

Structure (SMILES): CCN(CC)CCOc1cccc2oc3c4c(=O)c5c(O)c(C)c6c(c5c-3nc12)C(=O)[C@@](C)(O/C=C/[C@H](OC)[C@@H](C)[C@@H](OC(C)=O)[C@H](C)[C@H](O)[C@H](C)[C@@H](O)[C@@H](C)/C=C/C=C(/C)C(=O)N4)O6
- IC50 [4]: 171 µM
- IC50 [5]: 20 µM
- IC50 [6]: 16 µM
- Ratio IC50 [8]: 7
- Ratio IC50 [7]: 26
